Read-outs that look alike come from different tables or passages of the source.
What was measured:
[1] = tested on: spontaneous motility; test: Influence on spontaneous motility; type: in vivo, male ddy mice; conditions: Mus musculus, 1 h; 40 mg/kg oral, hydrochloride, 60 minutes before start; 60 minutes measurement; * = significant at P <0.05; read-out: Relative Spontaneous Motility (%) to Control
Experimental: (§1) Each test compound is used in the form of a hydrochloride.
(2) Influence on spontaneous motility:
The spontaneous motility is examined according to the method of T. H. Sevensson (Psychopharmacologia, 14, 157, 1969). Three ddy male mice having a body weight of 20 to 25 g are put in a black observation box of an acrylic resin as one group, and the amount of the spontaneous motility during a period of 60 minutes is measured and recorded by using Animex (manufactured by Farrod Co., Sweden).
Sixty minutes before the start of the measurement of the spontaneous motility, the test compound is orally administered in a dose of 40 mg/kg. The control animal is treated with physiological saline solution. Five groups (15 mice) are used for each dose level.
*Significant increase of the spontaneous motility at P <0.05

[2] = Acute toxicity (lethal action); conditions: mouse, in vivo, mice, hydrochloride, read-out: Acute Toxicity (Lethal Ratio %)
Experimental: as §1
The test compound is administered in a dose of 100 or 400 mg/kg to mice for examining the lethal action. Five mice are used for each dose level. The lethal ratio is measured 24 hours after oral administration.

[3] = tested on: reserpine-induced hypothermia; test: Anti-reserpine activity (antagonism against reserpine-induced hypothermia); type: in vivo, male ddy mice; conditions: Mus musculus; minimum dose necessary for increasing body temperature of reserpine-treated mice significantly (P < 0.05) over control; reserpine 2.5 mg/kg i.p., test compound (hydrochloride) oral 18 hours later
Experimental: as §1
(1) Anti-reserpine activity:
The antagonism against the reserpine-induced hypothermia is examined according to the method of B. M. Askew (Life Science, 4, 725-730, 1963).
Male ddy mice having a body weight of 19 to 25 g are used as the test animal. Reserpine is injected intraperitoneally in dose of 2.5 mg/kg, and 18 hours after the injection, the test compound is orally administered and the change of the body temperature with the lapse of time is examined by using a thermistor type thermometer (Model MGA III manufactured by Shibaura Denshi).
The effect of each compound is examined with 2 to 4 dose levels.
Each of the test compound is used in the form of an aqueous solution. The control animal is treated with physiological saline solution. Four animals having a body temperature of 24° to 25° C., 18 hours after the injection of reserpine, are used for each dose. The experiment is carried out in a room at 23° to 25° C.
^(a) The minimum dose necessary for increasing the body temperature o

[4] = tested on: spontaneous motility; test: Influence on spontaneous motility; type: in vivo, male ddy mice; conditions: Mus musculus, po, 1 h; 10 mg/Kg P.O. (footnote b), hydrochloride; * = significant at P <0.05; read-out: Relative Spontaneous Motility (%) to Control
[5] = tested on: dopamine and its metabolites in the mouse brain; test: Effect on the level of dopamine and its metabolites in the mouse brain; type: in vivo
Source text: Furthermore, we investigated the effect of the compound of the present invention (compound H and I) on the level of dopamine and its metabolites in the mouse brain. […] This means that the compounds of the invention antagonize against the reserpine-induced depression in a way completely different from the known tricyclic antidepressant.

| SMILES | response vs control in vivo at 40 mg/kg [1] | mortality at 24 h ([2]; 100 mg/Kg oral) | mortality at 24 h ([2]; 400 mg/Kg oral) | minimal effective dose [3] | response vs control in vivo at 10 mg/kg [4] | dopamine turnover in the brain [5] |
| --- | --- | --- | --- | --- | --- | --- |
| Cc1nccn1-c1ccc(NC(=O)c2ccc(F)cc2)cc1 [M, 1-[4-(4-Fluorobenzoylamino)phenyl]-2-methylimidazole] | 229 ± 30% | 0% | 0% | 10 mg/kg | – | – |
| Cc1nccn1-c1ccc(N)cc1 [K, 1-(4-Aminophenyl)-2-methylimidazole] | – | 40% | 80% | 1.25 mg/kg | 350 ± 31% | – |
| Cc1cn(-c2ccc(N)cc2)c(C)n1 [D, 1-(4-Aminophenyl)-2,4-dimethylimidazole] | 473 ± 48% | 0% | 60% | 5 mg/kg | – | – |
| CCc1nccn1-c1ccc(N)cc1 [F, 1-(4-Aminophenyl)-2-ethylimidazole] | 382 ± 25% | 0% | 60% | 1.25 mg/kg | – | – |
| CCc1nccn1-c1ccc(Cl)c(Cl)c1 [C, 1-(3,4-Dichlorophenyl)-2-ethylimidazole] | 99 ± 7% | 0% | 20% | 1.25 to 2.5 mg/kg | – | – |
| Cc1ccc(-n2ccnc2C)cc1C [A, 1-(3,4-Dimethylphenyl)-2-methylimidazole] | 82 ± 6% | 0% | 100% | 2.5 mg/kg | – | – |
| CC(C)c1nccn1-c1ccc(NC(=O)c2ccc(Cl)cc2)cc1 [P, 1-[4-(4-Chlorobenzoylamino)phenyl]-2-isopropylimidazole] | 92 ± 14% | 0% | 0% | 10 mg/kg | – | – |
| CCCCNc1ccc(-n2ccnc2C)cc1 [J, 1-(4-n-Butylaminophenyl)-2-methylimidazole] | 543 ± 57% | 0% | 60% | 5 mg/kg | – | – |
| Cc1nccn1-c1ccc(NC(=O)c2ccc(Cl)cc2)cc1 [L, 1-[4-(4-Chlorobenzoylamino)phenyl]-2-methylimidazole] | 367 ± 30% | 0% | 0% | 10 mg/kg | – | – |
| CCc1nccn1-c1ccc(NC(=O)c2ccc(C)cc2)cc1 [O, 1-[4-(4-Methylbenzoylamino)phenyl]-2-ethylimidazole] | 287 ± 23% | 0% | 20% | 5 mg/kg | – | – |
| Cc1ccc(-n2ccnc2C)cc1N [I, 1-(3-Amino-4-methylphenyl)-2-methylimidazole] | 58 ± 8% | 0% | 20% | 5 mg/kg | – | reduce dopamine turnover in the brain |
| CCc1nccn1-c1ccc(NC(=O)c2ccc(Cl)cc2)cc1 [N, 1-[4-(4-Chlorobenzoylamino)phenyl]-2-ethylimidazole] | 207 ± 51% | 0% | 0% | 2.5 mg/kg | – | – |
| Cc1nccn1-c1ccc(N(C)C)cc1 [B, 1-(4-Dimethylaminophenyl)-2-methylimidazole] | 526 ± 24% | 0% | 80% | 2.5 mg/kg | – | – |
| Cc1nccn1-c1ccc(N)c(C(F)(F)F)c1 [E, 1-(3-Trifluoromethyl-4-aminophenyl)-2-methylimidazole] | 70 ± 8% | 0% | 0% | 5 mg/kg | – | – |
| Cc1ccc(C(=O)Nc2ccc(-n3ccnc3C)cc2)cc1 [Q, 1-[4-(4-Methylbenzoylamino)phenyl]-2-methylimidazole] | 447 ± 51% | 0% | 40% | 10 mg/kg | – | – |
| Cc1nccn1-c1cccc(N)c1 [H, 1-(3-Aminophenyl)-2-methylimidazole] | 83 ± 3% | 0% | 0% | 2.5 mg/kg | – | reduce dopamine turnover in the brain |
| Cc1nccn1-c1ccc(N)cc1Cl [G, 1-(2-Chloro-4-aminophenyl)-2-methylimidazole] | 254 ± 68% | 0% | 40% | 10 mg/kg | – | – |

— patent US4301169A, “Novel imidazole compound and anti-depressing agent containing the same” (Eisai Co., Ltd., priority 1978, dated 1981)
